Data taken from US9932381B2, “Exendin-4 derivatives as selective glucagon receptor agonists” (priority 2014, dated 2018).
Non-standard residues stand in square brackets, D forms with d. Residues, ends and D or L forms follow the SMILES beside them. Ala(4-thiazolyl) = N[C@@H](Cc1cscn1)C(=O)O; Nle = CCCC[C@H](N)C(=O)O

Legend:
[1] = Solubility testing of exendin-4 derivatives (HPLC-UV of supernatant); format: physicochemical; conditions: pH 7.4
Protocol: Prior to the testing of solubility and stability of a peptide batch, its content was determined. Therefore, two parameters were investigated, its purity (HPLC-UV) and the amount of salt load of the batch (ion chromatography).
HPLC-UV was performed after 2 h of gentle agitation from the supernatant, which was obtained by 20 min of centrifugation at 4000 rpm.

[2] = target: T1, human GLP-1 receptor (hGLP-1 R) (Homo sapiens, UniProt P43220); assay: cAMP response (HTRF) of HEK-293 cells stably expressing human GLP-1 receptor; format: cell-based
T1 construct: expressed in transfected cells; host or cells: HEK-293
Protocol: cAMP content of cells was determined using a kit from Cisbio Corp. (cat. no. 62AM4PEC) based on HTRF (Homogenous Time Resolved Fluorescence). For preparation, cells were split into T175 culture flasks and grown overnight to near confluency in medium (DMEM/10% FBS). Medium was then removed and cells washed with PBS lacking calcium and magnesium, followed by proteinase treatment with accutase (Sigma-Aldrich cat. no. A6964). Detached cells were washed and resuspended in assay buffer (1×HBSS; 20 mM HEPES, 0.1% BSA, 2 mM IBMX) and cellular density determined. They were then diluted to 400000 cells/ml and 25 μl-aliquots dispensed into the wells of 96-well plates. For measurement, 25 μl of test compound in assay buffer was added to the wells, followed by incubation for 30 minutes at room temperature. After addition of HTRF reagents diluted in lysis buffer (kit components), the plates were incubated for 1 hr, followed by measurement of the fluorescence ratio at 665/620 nm. In vitro potency of agonists was quantified by determining the concentrations that caused 50% activation of maximal response (EC50).

hepatic glycogenolysis = assay: Blood glucose profile in anesthetized rats; format: in vivo, male Wistar rats; conditions: for effect on blood glucose: 10 to 30 μg/kg s.c.
Protocol: The method aimed to study a test compound on the process of hepatic glycogenolysis. The rats had free access to food until the start of the experiment. […] The effect of GCG-mimetic on hepatic glycogenolysis and the subsequent hyperglycemic peak in the blood was compared to the effect obtained with a subcutaneous bolus injection of GCG at a dose of 30 μg/kg.
Rats were anaesthetized with an intraperitoneal injection of pentobarbital sodium (60 mg/kg) and ketamine (10 mg/kg) and tracheotomized. Anesthesia was maintained for up to 5 hours by subcutaneous infusion of pentobarbital sodium (adjusted to the anesthetic depth of the individual animal; about 24 mg/kg/h). Body temperature was monitored with a rectal probe thermometer, and temperature was maintained at 37° C. by means of a heated surgical table. Blood samples for glucose analysis (10 μl) were obtained from the tip of the tail every 15 minutes. The rats were allowed to stabilize their blood glucose levels after surgery for up to 2 hours. Then, GCG as reference compound, or the test compound were administered subcutaneously. For GCG a dose of 30 μg/kg was used to induce hepatic glycogenolysis.

blood glucose = assay: Blood glucose profile in normoglycemic Beagle dogs; format: in vivo, male normoglycemic Beagle dogs; conditions: for effect on blood glucose relative to human glucagon: s.c. injection; for induction of a blood glucose response, SEQ. ID 5 vs. SEQ. ID 6: normoglycemic dogs
Protocol: Male normoglycemic Beagle dogs were fasted overnight before and during the entire experiment. The animals were randomized to groups of n=6 per group. […] The injection solutions were prepared freshly prior to the experiment. The test compound was administered as a single injection via three different routes (s.c., i.m. and i.v.) at doses of 1-100 μg/kg. […] Blood glucose was determined enzymatically (hexokinase method) from whole blood, insulin was analyzed from K-EDTA plasma with a dog-specific ELISA assay.

[3] = target: T2, human glucagon receptor (hGLUC R) (Homo sapiens, UniProt P47871); assay: cAMP response (HTRF) of HEK-293 cells stably expressing human glucagon receptor; format: cell-based; conditions: Table 4; read-out: EC50 hGLUC R
T2 construct: expressed in transfected cells; host or cells: HEK-293
Outline: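 cAMP accumulation was read by homogeneous time-resolved fluorescence after 30 min compound exposure at room temperature. Stable receptor-expressing HEK-293 cells, 400000 cells/ml, were used in HEPES-buffered HBSS containing 0.1% BSA and the phosphodiesterase inhibitor IBMX (2 mM).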

T1 sequence (P43220 24-463): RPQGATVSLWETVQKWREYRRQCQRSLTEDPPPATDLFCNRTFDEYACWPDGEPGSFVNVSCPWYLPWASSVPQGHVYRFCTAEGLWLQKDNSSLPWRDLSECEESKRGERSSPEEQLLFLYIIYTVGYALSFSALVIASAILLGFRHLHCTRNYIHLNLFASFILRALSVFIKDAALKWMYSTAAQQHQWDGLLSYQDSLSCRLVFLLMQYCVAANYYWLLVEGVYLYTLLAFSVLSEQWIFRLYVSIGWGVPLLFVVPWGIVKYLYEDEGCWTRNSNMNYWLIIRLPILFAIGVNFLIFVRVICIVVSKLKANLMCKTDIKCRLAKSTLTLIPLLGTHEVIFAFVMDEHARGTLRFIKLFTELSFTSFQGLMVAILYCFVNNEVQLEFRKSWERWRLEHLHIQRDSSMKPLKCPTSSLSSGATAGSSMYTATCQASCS
T2 sequence (P47871 26-477): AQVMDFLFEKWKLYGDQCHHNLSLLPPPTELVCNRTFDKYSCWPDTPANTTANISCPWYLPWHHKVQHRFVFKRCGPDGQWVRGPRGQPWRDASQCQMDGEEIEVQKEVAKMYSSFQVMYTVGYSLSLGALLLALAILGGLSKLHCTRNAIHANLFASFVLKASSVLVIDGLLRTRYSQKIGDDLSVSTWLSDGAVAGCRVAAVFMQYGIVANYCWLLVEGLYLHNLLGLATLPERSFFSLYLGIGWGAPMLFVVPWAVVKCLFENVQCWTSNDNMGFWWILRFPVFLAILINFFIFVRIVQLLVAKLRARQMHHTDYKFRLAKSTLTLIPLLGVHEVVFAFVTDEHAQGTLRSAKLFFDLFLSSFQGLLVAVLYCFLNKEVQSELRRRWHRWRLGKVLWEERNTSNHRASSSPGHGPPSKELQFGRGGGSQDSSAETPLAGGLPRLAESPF

| solubility at 2 h [1] [µg/mL] | EC50 ([2]; Table 4) [nM] | EC50 [3] [nM] | EC50 ([2]; Table 5, Tza vs. His in position 1) [nM] | SMILES | time of blood glucose peak after injection (hepatic glycogenolysis; 10 μg/kg s.c.) [min] | blood glucose excursion compared to 30 μg/kg GCG (hepatic glycogenolysis; 20 μg/kg s.c.) | time of blood glucose peak after injection (hepatic glycogenolysis; 20 μg/kg s.c.) [min] | time of blood glucose peak after injection (hepatic glycogenolysis; 30 μg/kg s.c.) [min] | effect on blood glucose (hepatic glycogenolysis) | peak increase of blood glucose (blood glucose; 10 μg/kg s.c., dog) [mmol/L] | subcutaneous versus intramuscular injection (blood glucose; dog) | glucose excursion at higher doses (blood glucose; doses beyond 10 μg/kg s.c., dog) | effect on blood glucose relative to human glucagon (blood glucose; dog) | duration of the glucose response (blood glucose; s.c., dog, versus human glucagon) | induction of a blood glucose response, SEQ. ID 5 vs. SEQ. ID 6 (blood glucose; s.c.) | activity by route of administration (blood glucose; subcutaneous, intramuscular and intravenous injection, dog) | blood glucose excursion compared to 30 μg/kg GCG (hepatic glycogenolysis; 10 μg/kg s.c.) |
| --- | --- | --- | --- | --- | --- | --- | --- | --- | --- | --- | --- | --- | --- | --- | --- | --- | --- |
| > 10000 | 2.19 | – | – | CC[C@H](C)[C@H](NC(=O)[C@H](Cc1ccccc1)NC(=O)[C@H](CCC(=O)O)NC(=O)[C@H](CCC(N)=O)NC(=O)[C@H](C)NC(=O)[C@H](CCCNC(=N)N)NC(=O)[C@H](CCCNC(=N)N)NC(=O)[C@H](CO)NC(=O)[C@H](CCC(=O)O)NC(=O)[C@H](CC(C)C)NC(=O)[C@H](CCC(N)=O)NC(=O)[C@H](CCCCN)NC(=O)[C@H](CO)NC(=O)[C@H](Cc1ccc(O)cc1)NC(=O)[C@H](CC(=O)O)NC(=O)[C@H](CO)NC(=O)[C@@H](NC(=O)[C@H](Cc1ccccc1)NC(=O)[C@@H](NC(=O)CNC(=O)[C@H](CCC(N)=O)NC(=O)[C@H](CO)NC(=O)[C@@H](N)Cc1cscn1)[C@@H](C)O)[C@@H](C)O)C(=O)N[C@@H](CCC(=O)O)C(=O)N[C@@H](Cc1c[nH]c2ccccc12)C(=O)N[C@@H](CC(C)C)C(=O)N[C@@H](CC(C)C)C(=O)N[C@@H](C)C(=O)NCC(=O)NCC(=O)N1CCC[C@H]1C(=O)N[C@@H](CCC(=O)O)C(=O)N[C@@H](CO)C(=O)NCC(=O)N[C@@H](C)C(=O)N1CCC[C@H]1C(=O)N1CCC[C@H]1C(=O)N1CCC[C@H]1C(=O)N[C@@H](CO)C(=O)O [SEQ ID NO 5, Tza-SQGTFTSDYSKQLESRRAQEFIEWLLAGGPESGAPPPS-OH] | 30 | nearly comparable shape of blood glucose excursion | 45 | 90 | dose-dependent increase of blood glucose | 3.5 to 4 | no difference in activity and blood glucose time-action profile | did no longer result in higher glucose excursion | mimicked the effect of human glucagon on blood glucose | slightly longer | similarly active | active through all parenteral routes | – |
| > 10000 | 9.3 | – | – | CC[C@H](C)[C@H](NC(=O)[C@H](Cc1ccccc1)NC(=O)[C@H](CCC(=O)O)NC(=O)[C@H](CCC(N)=O)NC(=O)[C@H](C)NC(=O)[C@H](CCCNC(=N)N)NC(=O)[C@H](CCCNC(=N)N)NC(=O)[C@H](CO)NC(=O)[C@H](CCC(=O)O)NC(=O)[C@H](CC(C)C)NC(=O)[C@H](CCC(N)=O)NC(=O)[C@H](CCCCN)NC(=O)[C@H](CO)NC(=O)[C@H](Cc1ccc(O)cc1)NC(=O)[C@H](CC(=O)O)NC(=O)[C@H](CO)NC(=O)[C@@H](NC(=O)[C@H](Cc1ccccc1)NC(=O)[C@@H](NC(=O)CNC(=O)[C@H](CCC(N)=O)NC(=O)[C@H](CO)NC(=O)[C@@H](N)Cc1cscn1)[C@@H](C)O)[C@@H](C)O)C(=O)N[C@@H](CCC(=O)O)C(=O)N[C@@H](Cc1c[nH]c2ccccc12)C(=O)N[C@@H](CC(C)C)C(=O)N[C@@H](CC(C)C)C(=O)N[C@@H](C)C(=O)N[C@H](C(=O)NCC(=O)N1CCC[C@H]1C(=O)N[C@@H](CCC(=O)O)C(=O)N[C@@H](CO)C(=O)NCC(=O)N[C@@H](C)C(=O)N1CCC[C@H]1C(=O)N1CCC[C@H]1C(=O)N1CCC[C@H]1C(=O)N[C@@H](CO)C(=O)O)[C@@H](C)O [SEQ ID NO 6, Tza-SQGTFTSDYSKQLESRRAQEFIEWLLATGPESGAPPPS-OH] | 30 | – | – | 60 | dose-dependent increase of blood glucose | – | – | – | mimicked the effect of human glucagon on blood glucose | – | similarly active | – | more powerful blood glucose excursion |
| > 10000 | 44.3 | 0.0018 | – | CCCC[C@H](NC(=O)[C@H](CCC(N)=O)NC(=O)[C@H](CCCCN)NC(=O)[C@H](CO)NC(=O)[C@H](CC(C)C)NC(=O)[C@H](CC(=O)O)NC(=O)[C@H](CO)NC(=O)[C@@H](NC(=O)[C@H](Cc1ccccc1)NC(=O)[C@@H](NC(=O)CNC(=O)[C@H](CCC(N)=O)NC(=O)[C@H](CO)NC(=O)[C@@H](N)Cc1cscn1)[C@@H](C)O)[C@@H](C)O)C(=O)N[C@@H](CCC(=O)O)C(=O)N[C@@H](CO)C(=O)N[C@@H](CCCNC(=N)N)C(=O)N[C@@H](CCCNC(=N)N)C(=O)N[C@@H](C)C(=O)N[C@@H](CCC(N)=O)C(=O)N[C@@H](CC(=O)O)C(=O)N[C@@H](Cc1ccccc1)C(=O)N[C@H](C(=O)N[C@@H](CCC(=O)O)C(=O)N[C@@H](Cc1c[nH]c2ccccc12)C(=O)N[C@@H](CC(C)C)C(=O)N[C@@H](CC(C)C)C(=O)N[C@@H](C)C(=O)N[C@H](C(=O)NCC(=O)N1CCC[C@H]1C(=O)N[C@@H](CCC(=O)O)C(=O)N[C@@H](CO)C(=O)NCC(=O)N[C@@H](C)C(=O)N1CCC[C@H]1C(=O)N1CCC[C@H]1C(=O)N1CCC[C@H]1C(=O)N[C@@H](CO)C(=O)O)[C@@H](C)O)[C@@H](C)CC [SEQ ID NO 3, Tza-S-Q-G-T-F-T-S-D-L-S-K-Q-Nle-ESRRAQDFIEWLLATGPESGAPPPS-OH] (H-[Ala(4-thiazolyl)]SQGTFTSDLSKQ[Nle]ESRRAQDFIEWLLATGPESGAPPPS-OH) | – | – | – | – | – | – | – | – | – | – | – | – | – |
| > 10000 | – | 0.0022 | – | CC[C@H](C)[C@H](NC(=O)[C@H](Cc1ccccc1)NC(=O)[C@H](CCC(=O)O)NC(=O)[C@H](CCC(N)=O)NC(=O)[C@H](C)NC(=O)[C@H](CCCNC(=N)N)NC(=O)[C@H](CCCNC(=N)N)NC(=O)[C@H](CO)NC(=O)[C@H](CCC(=O)O)NC(=O)[C@H](CC(C)C)NC(=O)[C@H](CCC(N)=O)NC(=O)[C@H](CCCCN)NC(=O)[C@H](CO)NC(=O)[C@@H](NC(=O)[C@H](CC(=O)O)NC(=O)[C@H](CO)NC(=O)[C@@H](NC(=O)[C@H](Cc1ccccc1)NC(=O)[C@@H](NC(=O)CNC(=O)[C@H](CCC(N)=O)NC(=O)[C@H](CO)NC(=O)[C@@H](N)Cc1cscn1)[C@@H](C)O)[C@@H](C)O)C(C)C)C(=O)N[C@@H](CCC(=O)O)C(=O)N[C@@H](Cc1c[nH]c2ccccc12)C(=O)N[C@@H](CC(C)C)C(=O)N[C@@H](CC(C)C)C(=O)N[C@@H](C)C(=O)NCC(=O)NCC(=O)N1CCC[C@H]1C(=O)N[C@@H](CCC(=O)O)C(=O)N[C@@H](CO)C(=O)NCC(=O)N[C@@H](C)C(=O)N1CCC[C@H]1C(=O)N1CCC[C@H]1C(=O)N1CCC[C@H]1C(=O)N[C@@H](CO)C(=O)O [SEQ ID NO 9, Tza-SQGTFTSDVSKQLESRRAQEFIEWLLAGGPESGAPPPS-OH] (H-[Ala(4-thiazolyl)]SQGTFTSDVSKQLESRRAQEFIEWLLAGGPESGAPPPS-OH) | – | – | – | – | – | – | – | – | – | – | – | – | – |
| > 10000 | 34.5 | 0.0022 | 19.7 | CC[C@H](C)[C@H](NC(=O)[C@H](Cc1ccccc1)NC(=O)[C@H](CC(=O)O)NC(=O)[C@H](CCC(N)=O)NC(=O)[C@H](C)NC(=O)[C@H](CCCNC(=N)N)NC(=O)[C@H](CCCNC(=N)N)NC(=O)[C@H](CO)NC(=O)[C@H](CCC(=O)O)NC(=O)[C@H](CC(C)C)NC(=O)[C@H](CCC(N)=O)NC(=O)[C@H](CCCCN)NC(=O)[C@H](CO)NC(=O)[C@H](CC(C)C)NC(=O)[C@H](CC(=O)O)NC(=O)[C@H](CO)NC(=O)[C@@H](NC(=O)[C@H](Cc1ccccc1)NC(=O)[C@@H](NC(=O)CNC(=O)[C@H](CCC(N)=O)NC(=O)[C@H](CO)NC(=O)[C@@H](N)Cc1cscn1)[C@@H](C)O)[C@@H](C)O)C(=O)N[C@@H](CCC(=O)O)C(=O)N[C@@H](Cc1c[nH]c2ccccc12)C(=O)N[C@@H](CC(C)C)C(=O)N[C@@H](CC(C)C)C(=O)N[C@@H](C)C(=O)N[C@H](C(=O)NCC(=O)N1CCC[C@H]1C(=O)N[C@@H](CCC(=O)O)C(=O)N[C@@H](CO)C(=O)NCC(=O)N[C@@H](C)C(=O)N1CCC[C@H]1C(=O)N1CCC[C@H]1C(=O)N1CCC[C@H]1C(=O)N[C@@H](CO)C(=O)O)[C@@H](C)O [SEQ ID NO 15, Tza-SQGTFTSDLSKQLESRRAQDFIEWLLATGPESGAPPPS-OH] (H-[Ala(4-thiazolyl)]SQGTFTSDLSKQLESRRAQDFIEWLLATGPESGAPPPS-OH) | – | – | – | – | – | – | – | – | – | – | – | – | – |
